15 compounds from ChEMBL document CHEMBL1133318, “Isoniazid-related copper(II) and nickel(II) complexes with antimycobacterial in vitro activity. Part 9” (Bioorg Med Chem Lett, 2000) can be followed below.

In brackets after ≈: the same amount, converted by molar mass.

Series [1] has as its system Mycobacterium tuberculosis. The series can be described thus: In vitro antimicrobacterial activity to inhibit 90% of Mycobacterium tuberculosis H37Rv (Rifampin and Isoniazid susceptible ATCC 27294 strain), relative to that of controls. Type of series: functional.
Series [2] concerns Mycobacterium tuberculosis. The series is described as follows: In vitro anti-mycobacterial activity against Mycobacterium tuberculosis H37Rv (Rifampin and Isoniazid susceptible ATCC 27294 strain). Type of series: functional. More on the design: concentration or dose not given beside the values.
For a further series, the system named is Vero. The series can be described thus: Compound was tested for its cytotoxicity on Vero cells. Type of series: functional, cell-based. The following applies: Chlorocebus sabaeus.
Series [3] in a line: Safety index from cytotoxicity to that of minimal inhibitory concentration. Type of series: toxicity. The following applies: read-out: S.I.
The test system of the next series is Mycobacterium avium. The series is described as follows: In vitro anti-mycobacterial activity against Mycobacterium avium at 12.5 ug/mL. Type of series: functional.

Turning to `C/C=N/NC(=O)c1ccncc1`, the MIC in series [1] is 0.025 µg/mL (≈ 0.153 µM). This compound showed an Inhibition in series [2] of 99%.
In the case of `O=C(N/N=C/c1cccc(C(F)(F)F)c1)c1ccncc1`, the MIC in series [1] turned out to be 0.1 µg/mL (≈ 0.341 µM). In series [2], the Inhibition is on record as 99%. The compound also gave an IC50 in the series on Vero above 10 µg/mL. Besides, in series [3], the selectivity ratio is above 100.
In turn, `C/C(=N\NC(=O)c1ccncc1)c1ccc(Cl)c(Cl)c1` came in with a minimum inhibitory concentration (MIC) in series [1] below 0.2 µg/mL. In addition, in series [2], the Inhibition worked out at 100%.
Regarding `O=C(N/N=C/c1ccc(C(F)(F)F)cc1)c1ccncc1`, the inhibition at 12.5 µg/mL with Mycobacterium avium turned out to be 82%. This compound gave a minimum inhibitory concentration (MIC) in series [1] below 0.2 µg/mL. Besides, the Inhibition in series [2] was found to be 100%.
For `C/C(=N\NC(=O)c1ccncc1)c1ccc(F)cc1`, in series [1], the MIC was below 0.2 µg/mL. This compound yielded an Inhibition in series [2] of 99%. Also, the IC50 with Vero was above 10 µg/mL. Besides, the selectivity ratio in series [3] was above 50.
Turning to `NNC(=O)c1ccncc1` [ISONIAZID], the MIC in series [1] is 0.05 µg/mL (≈ 0.365 µM). Moreover, the IC50 in the series with Vero is above 1000 µg/mL.
In turn, `O=C(N/N=C/c1ccccc1F)c1ccncc1` came in with an MIC in series [1] of 0.05 µg/mL (≈ 0.206 µM). In series [2], this compound displayed an Inhibition of 100%. Further, in the series on Vero, it took 8.4 µg/mL (≈ 34.5 µM) to reach half-maximal inhibition (IC50). For the same compound, in series [3], the selectivity ratio came to 168.
With `CO[C@H]1/C=C/O[C@@]2(C)Oc3c(C)c(O)c4c(O)c(c(/C=N/N5CCN(C)CC5)c(O)c4c3C2=O)NC(=O)/C(C)=C\C=C\[C@H](C)[C@H](O)[C@@H](C)[C@@H](O)[C@@H](C)[C@H](OC(C)=O)[C@@H]1C` [RIFAMPIN], the MIC in series [1] turned out to be 0.06 µg/mL (≈ 0.0729 µM). The compound further displayed an IC50 with Vero of 147 µg/mL (≈ 179 µM).
`COc1ccc(/C=N/NC(=O)c2ccncc2)cc1F` yielded an MIC in series [1] below 0.2 µg/mL. In addition, the Inhibition in series [2] amounted to 99%.
In series [1], `O=C(N/N=C/C(F)(F)F)c1ccncc1` gave an MIC of 0.05 µg/mL (≈ 0.23 µM). In addition, in series [2], the Inhibition turned out to be 100%.
In the same order, the values of `C/C(=N\NC(=O)c1ccncc1)c1cccc(F)c1` are below 0.05 µg/mL and 100%.
In the same order, the values of `C/C(=N\NC(=O)c1ccncc1)C(F)(F)F` are 0.05 µg/mL (≈ 0.216 µM) and 99%.
In series [1], `O=C(N/N=C(\c1ccccc1)C(F)(F)F)c1ccncc1` showed an MIC of 6.25 µg/mL (≈ 21.3 µM). For the same compound, the Inhibition in series [2] is recorded as 100%.
In the case of `O=C(N/N=C/c1cccc(F)c1)c1ccncc1`, 12.5 µg/mL produced 82% inhibition with Mycobacterium avium. This compound registered an MIC in series [1] below 0.2 µg/mL. Also, in series [2], the Inhibition is 99%. In the series on Vero, the IC50 is above 6.25 µg/mL. Moreover, in series [3], the selectivity ratio was above 31.2.
In turn, `C/C(=N\NC(=O)c1ccncc1)c1ccccc1F` displayed an MIC in series [1] of 0.2 µg/mL (≈ 0.777 µM). Further, the Inhibition in series [2] is on record as 100%. In the series on Vero, this compound displayed a 50% inhibitory concentration (IC50) above 125 µg/mL. In addition, in series [3], the selectivity ratio was above 625.

For orientation: MIC means the lowest concentration found to suppress growth. The term Inhibition denotes the drop in the measured response relative to a control, in per cent. What is called IC50 is the concentration that inhibits the measured activity by half. What is called inhibition is the share of the control response that was lost under treatment.
